According to patent US12644100B2, “Methods for treating metabolic disorders by targeting ADCY5” (THE BROAD INSTITUTE, INC., priority 2019, dated 2026):

Test system: primary differentiating osteoblasts
Test: Osteoblast differentiation assay (ALP activity) in primary differentiating osteoblasts treated with etomoxir
Format: cell-based, human
Conditions: 100 μM etomoxir between day 2 and day 5 of differentiation
Experimental: FIG. 9A-9E—3q21.1 haplotype affects lipid oxidation in adipocytes and osteoblasts. (9A) Osteoblast alkaline phosphatase (ALP) activity in primary differentiating osteoblasts treated with 100 μM etomoxir (carnitine palmitoyltransferase 1 antagonist) or negative control. Assays were performed in cells from 18 heterozygous individuals (haplotypes 1/2) and 23 homozygous individuals (haplotypes 1/1) and differentiating osteoblasts were treated between day 2 and day 5 of differentiation. (9B) Oxidation of [14C]palmitate (0.5 mM) to 14CO2 in primary differentiating osteoblasts treated with 100 μM etomoxir (carnitine palmitoyltransferase 1 antagonist) or negative control. […] Seahorse XF24 Flux analyzer was performed at each time point and contribution of ATP generation was calculated from glycolysis vs. oxidative phosphorylation. […] Isogenic lines were differentiated to osteoblasts after undergoing clonal expansion, and marker gene expression for osteoblast differentiation was measured by qPCR. […] Isogenic lines were differentiated to adipocytes after undergoing clonal expansion, and catecholamine-stimulated lipolysis was measured. […]
Culture and differentiation of primary human AMSCs. […] Additionally, small quantities of the original liposuction material would be aliquoted into T-25 flasks at a 1:1 ratio of fat to medium as controls to check for contamination. […]

CCOC(=O)[C@@]1(CCCCCCOc2ccc(Cl)cc2)CO1 [etomoxir]
osteoblast differentiation (ALP activity) (haplotype 1 homozygotes (n=23), p-value=0.005): dramatic reduction in osteoblast differentiation
osteoblast differentiation (ALP activity) (heterozygotes haplotypes 1/2 (n=18)): no effect
